Values of other authors, collected in patent US8735374B2, “Oral mucoadhesive dosage form” (Intelgenx Corp., priority 2009, dated 2014).
Values joined by “and” are separate entries in the source; they are usually repeats but may differ in a detail not shown here. Equal values may be shown once.

Settings: oral administration; first pass hepatic metabolism, high lipid solubility

## CCCCCc1cc(O)c2c(c1)OC(C)(C)[C@@H]1CCC(C)=C[C@@H]21 [THC, Δ^9-tetrahydrocannabinol]
  portion of an administered dose that reaches systemic circulation: 10 to 20% and 10-20%
